Laboratory results published in ChEMBL document CHEMBL1201862, “PubChem BioAssay data set” (2004).
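Cultured in 96-well plates, cells were exposed to test compound for 48 hours across five concentrations. GI50 = concentration required for 50% inhibition of growth.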 Calls of active or inactive are those of the source. Cut-off read from the data, not from the text of the source: active = GI50 up to about 1.1 µM and inactive = higher.

What was measured:
Assay in all cases: NCI anticancer screen, dose series, 48 h
[1] = system: SNB-78
[2] = system: M19-MEL
[3] = system: DMS-114
[4] = system: LXFL 529
[5] = system: DLD-1
[6] = system: DMS-273
[7] = system: XF498
[8] = system: RXF 631
[9] = system: HOP-18

Measured: GI50

COc1ccc([C@H]2CC3C(=O)N(c4ccc(OC)cc4)C(=O)C3c3[nH]c4ccccc4c32)cc1 (some centres undefined)
inactive: [1] > 100 µM | [2] 71.4 µM | [3] 87.9 µM | [4] 55.1 µM | [5] 93.8 µM | [6] 14.8 µM | [7] 32.7 µM

CC12CC/C(=N/NC(N)=O)C3C1CCCC32
inactive: [2] > 100 µM | [3] > 100 µM | [4] > 100 µM | [5] > 100 µM | [6] > 100 µM | [8] > 100 µM | [9] > 100 µM

O=C1NC(=S)NC(=O)C1=Cc1ccc2ccccc2n1
inactive: [1] > 100 µM | [2] > 100 µM | [3] > 100 µM | [4] > 100 µM | [5] > 100 µM | [6] > 100 µM | [9] > 100 µM

N#[N+][c-]1c(-c2ccccc2)n[nH]c1=O
inactive: [2] > 100 µM | [3] > 100 µM | [4] > 100 µM | [5] > 100 µM | [6] > 100 µM | [7] > 100 µM | [8] > 100 µM

Cc1ccc2nc(NC(=O)C(=O)C(C#N)c3nc4ccccc4s3)sc2c1 (centres undefined)
inactive: [1] 36.3 µM | [2] 43.6 µM | [3] 24.8 µM | [4] 28.4 µM | [6] 28.4 µM | [7] 28.8 µM | [8] 44.7 µM | [9] 11.6 µM

CCOC(=O)c1csc(CCCCCCc2nc(C(=O)OCC)cs2)n1
inactive: [1] 45.3 µM | [2] 21.9 µM | [4] 56.1 µM | [5] > 61.4 µM | [6] 41.2 µM | [7] 26.7 µM | [8] > 87.7 µM | [9] 75.5 µM

COc1ccc(/C=C/C(=O)c2sc(-c3cccnc3)nc2C)cc1
inactive: [1] > 100 µM | [2] 67.9 µM | [3] 26.7 µM | [5] 39.4 µM | [6] 40.9 µM | [8] 54.3 µM | [9] 45.3 µM

BrC12C3C4C5C(C(C43)C13OCCO3)C52 (centres undefined)
inactive: [1] > 100 µM | [2] > 100 µM | [3] > 100 µM | [4] > 100 µM | [5] > 100 µM | [6] > 100 µM | [7] 60.4 µM | [8] > 100 µM | [9] 8.55 µM

CSC(=O)C[C@@]12O[C@@H]([C@@H](C)C3CCC4[C@@H]5C(O)CC6=CC(=O)C=C[C@]6(C)C5CC[C@@]43C)C[C@](C)(O1)C(C)(C)O2 (some centres undefined)
inactive: [1] 15.5 µM | [2] 1.43 µM | [3] 5.81 µM | [4] 13.2 µM | [6] 15.9 µM | [7] 14.7 µM | [8] 19.8 µM

CN(C)CC1CC/C(=C\c2ccc(Cl)cc2)C1=O (centres undefined)
inactive: [1] 16.3 µM | [2] 3.54 µM | [3] 7.52 µM | [4] 1.99 µM | [5] 3.71 µM | [6] 3.85 µM | [7] 7.66 µM | [8] 20.4 µM | [9] 18.2 µM

C1CN(P2(N3CC3)=NP(N3CC3)(N3CC3)=NP(N3CC3)(N3CC3)=N2)CCO1 (centres undefined) [FOTRETAMINE]
inactive: [1] > 100 µM | [2] > 100 µM | [3] 80.7 µM | [4] > 100 µM | [5] > 53.5 µM | [6] 32.4 µM | [7] > 100 µM | [9] > 100 µM

CC1CC2C3CCC4=CC(=O)C=CC4(C)C3(F)C(O)CC2(C)C1(O)C(=O)CO.Cc1nnc(NS(=O)(=O)c2ccc(/N=N/c3cc(/N=N/c4ccc(S(=O)(=O)Nc5nnc(C)s5)cc4)c4c(NC(=O)C(Cl)Cl)cccc4c3OC(=O)C(Cl)Cl)cc2)s1
inactive: [1] > 100 µM | [2] 18.5 µM | [3] 18.7 µM | [4] 31.9 µM | [5] 16.1 µM | [6] 11.7 µM | [7] 25.8 µM | [8] 34.6 µM

CSc1sc(=S)sc1C(=O)N(C)c1ccccc1
inactive: [1] > 100 µM | [2] > 100 µM | [3] > 100 µM | [4] > 100 µM | [6] > 100 µM | [7] > 100 µM

COc1ccc(-c2cc(-c3cc(Cl)cc(Br)c3O)nc(O)n2)cc1
inactive: [1] 18.7 µM | [2] 19.7 µM | [3] 14.1 µM | [4] 14.6 µM | [5] 16.7 µM | [6] 15 µM | [9] 17.2 µM

O=c1[nH]c(S)nc2c1sc(=S)n2-c1ccccc1
inactive: [1] > 100 µM | [2] > 100 µM | [3] > 100 µM | [4] > 100 µM | [5] > 100 µM | [6] > 100 µM | [7] > 100 µM | [9] > 100 µM

CC(=O)O[C@@H]1CC(C)C2CC2C2=C(C(O)OC2O)[C@@H]1C(C)CCC=C(C)C (some centres undefined)
inactive: [1] 30.5 µM | [2] 22.8 µM | [3] 23.2 µM | [4] 27.6 µM | [5] 32.4 µM | [6] 21.4 µM | [7] 19 µM

CC(C)c1ccccc1NC(=O)CCC(=O)NN
inactive: [1] > 100 µM | [2] > 100 µM | [4] > 100 µM | [5] > 100 µM | [6] > 100 µM | [7] > 100 µM | [8] > 100 µM

CC(C)CCC[C@@H](C)C1CCC2[C@@H]3CC=C4C[C@@H](C(=O)NCC[N+](C)(C)CCCS(=O)(=O)[O-])CC[C@]4(C)C3CC[C@@]21C (some centres undefined)
inactive: [1] 18.8 µM | [2] 17.1 µM | [3] 19.9 µM | [4] 18.8 µM | [5] 22.4 µM | [6] 17 µM | [8] 18.4 µM | [9] 17.7 µM

CC(/C=C/NNC1=NN=C(c2ccccc2)C(c2ccccc2)N1)Sc1ccccc1N (centres undefined)
inactive: [1] 7.31 µM | [2] 9.2 µM | [4] 4.98 µM | [5] 3.62 µM | [6] 6.7 µM | [8] 13.1 µM

Cc1cc2nc(O)c(CCC(=O)O)nc2cc1C
inactive: [1] > 100 µM | [2] > 100 µM | [3] 35.6 µM | [4] > 100 µM | [5] > 100 µM | [7] > 100 µM | [8] > 100 µM | [9] > 100 µM

CC1(C)Oc2ccccc2N2O[C@@H]3C(=O)N(c4ccccc4)C(=O)[C@@H]3C21c1ccccc1 (some centres undefined)
inactive: [1] 35.5 µM | [2] 29 µM | [3] 23.2 µM | [4] 56.1 µM | [5] 25.1 µM | [9] 24.3 µM

Cc1ccccc1/C=C/c1csnn1
inactive: [1] > 100 µM | [2] > 80.5 µM | [3] > 40.6 µM | [4] > 100 µM | [5] > 49.5 µM | [6] > 100 µM | [7] > 100 µM | [8] > 100 µM | [9] > 100 µM

CCSc1nnc(-c2ccccc2)nc1Cc1ccc(OC)cc1
inactive: [1] 78 µM | [2] > 100 µM | [4] 50.8 µM | [5] > 100 µM | [6] 71.9 µM | [7] 62.7 µM | [9] > 100 µM

NCCSc1cc(O)c2c(c1N)C(=O)c1ccccc1C2=O
inactive: [1] 32.1 µM | [2] 24.3 µM | [4] 38.2 µM | [5] 30.3 µM | [7] 21.8 µM | [8] 25.2 µM

O=C1CC2=CCCC2O1 (centres undefined)
inactive: [1] > 100 µM | [2] > 100 µM | [3] > 100 µM | [4] > 100 µM | [5] > 100 µM | [6] > 100 µM | [7] > 100 µM
